Data as given in patent publication US20130071547A1, “LOW CALORIC FAT REPLACERS” (NESTEC S.A., priority 2009, published 2013).
“Also recorded” adds a separate entry of the source. Read-outs that look alike come from different tables or passages of the source.

Experiments:
subjects [1] = experiment: 2-Alternative forced choice test, which solution tastes fattier (Medica 16, rosiglitazone); format: in vivo, human; conditions: agonist solution vs water, 40 subjects, p<0.05
Procedure: A correct choice is defined as choosing as fattier the sample containing the test ingredients. Medica 16 and rosiglitazone were assessed independently at three concentration, 10 μM, 50 μM and 100 μM.
Forty subjects were given two solutions one containing the agonist and the other water, and asked which one tastes fattier.

GPR40 [2] = target: T1, GPR40 (Homo sapiens, UniProt O14842); conditions: cited from earlier work
T1 construct: expressed in transfected cells; host or cells: Chem-1 (Chem1) cells stably expressing GPR40
T1 sequence (O14842 whole entry, species assumed): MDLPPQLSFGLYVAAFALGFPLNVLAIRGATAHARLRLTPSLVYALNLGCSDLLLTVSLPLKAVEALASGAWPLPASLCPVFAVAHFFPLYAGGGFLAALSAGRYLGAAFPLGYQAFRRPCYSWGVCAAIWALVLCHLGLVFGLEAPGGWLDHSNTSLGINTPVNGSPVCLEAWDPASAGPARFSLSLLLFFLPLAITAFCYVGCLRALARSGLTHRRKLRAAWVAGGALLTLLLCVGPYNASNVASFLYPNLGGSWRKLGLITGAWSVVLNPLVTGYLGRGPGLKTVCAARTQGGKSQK

subjects [3] = experiment: Description of the sensory attributes of GPR40 agonists by untrained subjects; format: in vivo, human; conditions: for SUMMARY of the comments (sensory attributes): eight subjects with nose clips; for sensory attributes described by most participants: 0.5% ethanol solutions, untrained subjects with nose clips; for fatty mouth sensation (overall conclusion of Example 2): conclusion from triangle and descriptive tests
Description: In a different experiment, untrained subjects were asked to describe the sensory attributes of the agonists. The majority of participants described the molecules as creamy, oily, or providing mouth and lip coating (Tables 2 and 3).
Eight subjects wearing nose clips were presented with 0.5% ethanol solutions containing agonists of GPR40 and asked to describe them.

subjects [4] = experiment: Triangle tests with GPR40 agonists (identify the odd sample); format: in vivo, human; conditions: highest concentration tested, 0.5% ethanol in water, nose clips; for participants who correctly identified the odd sample: one compound cup and two control cups; for identification of the sample with the compound as the odd sample (significance): 21 subjects
Procedure: The GPR40 agonist (Compound 5 or Compound 20) was dissolved in 0.5% ethanol in water. Control samples were 0.5% ethanol in water. Three concentrations for compound 5 and four concentrations for compound 20 were tested. For each concentration twenty one subjects wearing nose clips were presented with one cup containing the compound and two control cups in a random order. The subjects were asked to identify the odd sample. […] The significance level is shown with a dashed line. * p<0.01, ** p<0.0001
Triangle tests were used with 21 subjects to determine if solutions containing Compound 5 or Compound 20 taste different from solutions with the same vehicle but without compounds. The subjects, wearing nose clips, were presented with three samples in random order, one containing the agonist, and two control solutions, and were asked to identify the odd sample. Eighteen out of 21 participants correctly identified the highest concentration of compound 5 (p<0.0001), and 13 out of 21 correctly identified the highest concentration of Compound 20 (p<0.01) (FIG. 3).

GPR40 [5] = target: T1, GPR40; experiment: Calcium response of Chem-1 cells stably expressing GPR40 (calcium sensitive dye, Flex station); format: cell-based
Description: The calcium response of Chem-1 cells stably expressing GPR40 to increasing concentration of 12-Methyltridecanal is shown.
To determine if 12-Methyltridecanal is an agonist of GPR40, Chem1 cells stably expressing GPR40 were loaded with a calcium sensitive dye, stimulated with increasing concentrations of 12-Methyltridecanal, and their calcium response measured using a Flex station.

subjects [6] = experiment: 2-Alternative forced choice test of the fattiness of 12-Methyltridecanal; format: in vivo, human
Procedure: 12-Methyltridecanal was dissolved in 0.5% ethanol in water. Control samples were 0.5% ethanol in water. Three concentrations were tested. For each concentration thirty nine subjects wearing nose clips were presented with one cup containing the compound and one control cup in a random order. The subjects were asked to identify which sample is fattier. The significance level is shown with a solid line.
2-Alternative forced choice tests were used to test the fattiness of 12-Methyltridecanal. Thirty nine subjects were presented with two cups, one with a solution containing 12-Methyltridecanal and the other vehicle alone. The subjects were wearing nose clips, and were asked which sample is fattier. A significant number of participants found the sample containing the highest concentration of 12-Methyltridecanal fattier (28 out of 39 subjects, p<0.01) (FIG. 5).

wild type Chem1 cells = experiment: Calcium response of wild type Chem1 cells (control cells); format: cell-based
subjects [7] = experiment: Descriptive information on taste, texture and after taste of compound 20; format: in vivo, human; conditions: 51.2 μM in 0.5% ethanol, nose clips; for Taste (descriptor: number of subjects): wrapped cell: 'Slightly savoury: 1'; for Texture (descriptor: number of subjects): wrapped cells: 'Slightly viscous: 2', 'Slightly coats the mouth: 2'
Procedure: Six subjects wearing nose clips were presented with 0.5% ethanol in water (warm up sample) or 51.2 μM compound 20 in 0.5% ethanol (reference sample). Participants were asked to describe, avoiding hedonic terms, the taste, texture and aftertaste of the reference sample. Five out of 6 subjects found texture attributes compatible with the texture of fat.

With `CC(C)(CCCCCCCCCCC(C)(C)CC(=O)O)CC(=O)O` [Medica 16] the “sample with agonist chosen as tasting fattier than control” value (shortened to “sample with agonist chosen”) (subjects [1]; 50 μM) was “significantly chosen as fattier than control solution; also recorded: more subjects found the solution with agonists to taste fattier” and the “sample with agonist chosen” value (subjects [1]; 100 μM) was “significantly chosen as fattier than control solution; also recorded: more subjects found the solution with agonists to taste fattier”.
For `CC#CC(CC(=O)O)c1ccc(OCc2cc(-c3ccccc3)oc2C)cc1` (stereo not drawn) [Compound 5], the GPR40 agonist activity (GPR40 [2]; as described in patent WO2005/086661) is given as “GPR40 agonist activity was demonstrated”, the “SUMMARY of the comments (sensory attributes)” value (“SUMMARY of the comments” for short) (subjects [3]; 40 μM in 0.5% ethanol, agreement over most participants on mouth coating, creaminess) is given as “Bitter; also recorded: Astringent/tingling; also recorded: Slight mouth coating, Creaminess; also recorded: Persistent” and the “sensory attributes described by most participants” value (subjects [3]) is given as “agreement from most participants on the creaminess, mouth and lip coating”. The “fatty mouth sensation (overall conclusion of Example 2)” value (from here on “fatty mouth sensation”) (subjects [3]) was “impart a fatty mouth sensation”, the “participants who correctly identified the odd sample” value (subjects [4]) was “Eighteen” and the “identification of the sample with the compound as the odd sample (significance)” value (subjects [4]) was “a significant number of subjects were able to identify the sample with the compound as the odd sample”.
In the case of `CN(CCOc1ccc(CC2SC(=O)NC2=O)cc1)c1ccccn1` (stereo not drawn) [Roziglitazone], the “sample with agonist chosen” value (subjects [1]; 50 μM) is reported as “more subjects found the solution with agonists to taste fattier”, the “sample with agonist chosen” value (subjects [1]; 50 μM, listed as rosiglitazone) is reported as “significantly chosen as fattier than control solution” and the “sample with agonist chosen” value (subjects [1]; 100 μM) is reported as “more subjects found the solution with agonists to taste fattier”. For the same compound, the “sample with agonist chosen” value (subjects [1]; 100 μM, listed as rosiglitazone) was “significantly chosen as fattier than control solution”.
For `CC(C)CCCCCCCCCCC=O` [12-Methyltridecanal], the “calcium response to increasing concentrations” value (GPR40 [5]) was “clear dose-dependant response”, the “fatty taste effect versus control” value (subjects [6]; 10 μM (lowest concentration), 39 subjects, 0.5% ethanol in water, nose clips) was “no significant effect” and the “subjects choosing the sample with the compound as fattier than control (correct choice)” value (subjects [6]; 50 μM, 39 subjects, trend, p<0.05, not significant when taking into consideration multiple testing) was 26. The “subjects choosing the sample with the compound as fattier than control” value (subjects [6]; 100 μM (highest concentration), 39 subjects, 0.5% ethanol in water, nose clips, p<0.0087 (p<0.01)) was 28 subjects, the “fatty mouth sensation” value (subjects [6]; conclusion from 2-Alternative forced choice test) was “impart a fatty mouth sensation” and the “calcium response to increasing concentrations” value (wild type Chem1 cells) was “do not respond; also recorded: did not respond”.
In the case of `CCCCC/C=C\C/C=C\CCCCCCCC(=O)O` [Linoleic acid], the “SUMMARY of the comments” value (subjects [3]; 450 μM in 0.5% ethanol, r7 continues in r8 ('texture.')) is reported as “Astringent. Pungent; also recorded: Some mentions on creamy, viscous”.
For `Cc1ccccc1C#Cc1ccc(CCC(=O)O)cc1` [Compound 20], the GPR40 agonist activity (GPR40 [2]; as described in Christiansen et al, Journal of Medicinal Chemistry, 2008, 51, 7061-7064) is given as “GPR40 agonist activity was demonstrated”, the “subjects who found texture attributes compatible with the texture of fat” value (subjects [7]) is given as “Five” and the “Others (comments)” value (subjects [7]; six subjects, wrapped cell: 'Slightly burning, hot, at the side of the tongue after spitting out.') is given as “Slightly burning,”. The “Taste (descriptor: number of subjects)” value (subjects [7]; six subjects) was “Slightly”, the “Taste (descriptor: number of subjects)” value (subjects [7]; six subjects, no taste noted) was “None: 5” and the “After taste (descriptor: number of subjects)” value (subjects [7]; six subjects, wrapped cells: 'Astringent at the back of the throat', 'Bitter - Very slightly') was “None: 3”. For the same compound, the “Texture (descriptor: number of subjects)” value (subjects [7]; six subjects) was “Slightly”, the “Texture (descriptor: number of subjects)” value (subjects [7]; six subjects, a bit oily texture) was “A bit oily: 1” and the “Texture (descriptor: number of subjects)” value (subjects [7]; six subjects, greasy texture) was “Greasy: 2”. For the same compound, the “Texture (descriptor: number of subjects)” value (subjects [7]; six subjects, no texture noted) was “None: 1”, the “Texture (descriptor: number of subjects)” value (subjects [7]; six subjects, slightly coats the mouth) was “Slightly coats” and the “Texture (descriptor: number of subjects)” value (subjects [7]; six subjects, waxy texture) was “Waxy: 1”. The “SUMMARY of the comments” value (subjects [3]; 51.2 μM in 0.5% ethanol, agreement over most participants on lip coating, creamy) was “Coating the lips, creamy; also recorded: Slightly bitter”, the “sensory attributes described by most participants” value (subjects [3]) was “agreement from most participants on the creaminess, mouth and lip coating” and the “fatty mouth sensation” value (subjects [3]) was “impart a fatty mouth sensation”. For the same compound, the “participants who correctly identified the odd sample” value (subjects [4]) was 13 out of 21 and the “identification of the sample with the compound as the odd sample (significance)” value (subjects [4]) was “a significant number of subjects were able to identify the sample with the compound as the odd sample”.
